Patent US12139473B2, “Substituted-N-heteroaryl compounds and uses thereof” (Bionomics Limited, priority 2019, dated 2024)

Target: T1, hKv3.1 (Homo sapiens, UniProt P48547)
T1 construct: expressed in transfected cells
T1 sequence (P48547 1-511): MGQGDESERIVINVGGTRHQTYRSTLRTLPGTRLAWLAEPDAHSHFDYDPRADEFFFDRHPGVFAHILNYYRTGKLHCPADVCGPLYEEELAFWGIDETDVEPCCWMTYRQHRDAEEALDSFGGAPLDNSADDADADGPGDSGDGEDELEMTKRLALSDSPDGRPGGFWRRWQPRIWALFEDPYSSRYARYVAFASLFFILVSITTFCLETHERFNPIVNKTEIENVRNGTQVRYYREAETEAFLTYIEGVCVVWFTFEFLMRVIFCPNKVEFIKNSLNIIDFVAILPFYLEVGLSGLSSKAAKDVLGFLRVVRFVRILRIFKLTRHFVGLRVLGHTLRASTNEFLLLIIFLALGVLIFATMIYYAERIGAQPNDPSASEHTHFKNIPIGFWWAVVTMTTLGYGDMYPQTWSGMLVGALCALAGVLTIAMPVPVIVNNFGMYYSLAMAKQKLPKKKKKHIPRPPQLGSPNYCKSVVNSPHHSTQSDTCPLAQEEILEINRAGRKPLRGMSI
Experiment: Automated patch clamp electrophysiology (Patchliner), CHO/Kv3.1 cells
Assay type: cell-based
Details: 10 μM compound, hKv3.1 in CHO-K1, whole-cell; for Kv3.1 Activity at 10 μM Potentiation (%): peak current at voltage step of −10 mV vs vehicle (0.33% DMSO); for Kv3.1 Activity at 10 μM Voltage Shift (mV): voltage shift of the IV curve at V1/2
Experimental: hKv3.1, hKv3.2, hKv3.3, and hKv3.4 were stably expressed in CHO-K1 (Chinese hamster ovary) cells and kept under constant antibiotic selection. For in vitro assays, cells were maintained in appropriate growth medium at 37° C. and 5% CO2 in a humidified incubator.
hKv3.X expressing cells were plated in T-25 flasks for 3-4 days at 37° C. (no selection antibiotic) prior to use and grown to 80% confluence. Cells were washed twice with PBS (calcium and magnesium free) and detached with a 5-minute treatment at 37° C. with 2-3 mls of Accutase®. Cells were collected, and flask was washed in CHO-SFM II media (Life Technologies Gibco), centrifuged for 2 minutes at ˜110×g and resuspended to obtain a single cell suspension of ˜2-3×10^6 cells/ml.
The intracellular solution contained the following (in mM): KCl 50, NaCl 10, KF 60, EGTA 20, HEPES 10, adjusted to pH 7.2 with KOH and an osmolarity of 285 mOsmol. Seal enhancer was purchased from Nanion (80 mM NaCl, 3 mM KCl, 10 mM MgCl2, 35 mM CaCl2), 10 mM HEPES, pH7.4, 298 mOsmol. The external solution contained (in mM): NaCl 140, KCl 4, CaCl2) 2, MgCl2 1, HEPES 10, Glucose 5, adjusted to pH7.4 and an osmolarity of 298 mOsmol.
All compounds were initially tested at 10 uM at a final DMSO concentration of 0.33%. Compounds were dissolved in dimethylsulfoxide (DMSO) at a stock concentration of 30 mM. The compound was further diluted 1:10 to give a stock concentration of 3 mM in DMSO. The final assay solution was diluted 1:300 in External solution to give a final concentration of 10 uM. For the DMSO Control Buffer 30 uL of DMSO was added to 10 mL buffer.
All electrophysiological recordings were performed at ambient temperature (21-23° C.) using automated patch clamp (Patchliner, Nanion Technologies GmbH) in the whole-cell configuration.
Cell membrane potentials were held at −80 mV, and currents were evoked by voltage steps (1000 ms duration) from −60 to +60 mV in 10 mV increments. This was performed first with vehicle (0.33% DMSO) and then with 10 uM compound, after a 3-minute incubation period. Data was taken from 4 cells per assay.
The recordings were analysed and selected using peak current amplitude (>100 pA at the −10 mV voltage step) in the absence of compound to eliminate unsuitable cells from analysis. Peak current amplitude was measured and recorded for each voltage step and data was normalised to the maximum current at +60 mV. The normalised Kv3.x currents following addition of the compound were then compared with the currents recorded prior to compound addition (vehicle control). Positive modulation was determined as % potentiation at the voltage step of −10 mV=[current (cmpd)/current (veh)]*100−100. % potentiation≥50% was considered acceptable. In addition, voltage shift of the IV curve at V1/2 was measured. V1/2 of ≥−5 mV was also considered acceptable. IV curves were plotted in GraphPad Prism (software version 6.0) and fitted with a Boltzmann equation, where V1/2 is the voltage at half-maximal activation.

Kv3.1 Activity at 10 μM Potentiation (%) | Kv3.1 Activity at 10 μM Voltage Shift (mV) | Structure (SMILES)
16% | −1.0 mV | Cc1ccc(Oc2cc(N3C(=O)NC(C)(C)C3=O)ncn2)cc1OCC1CC1 [Example 37, 3-[6-[3-(cyclopropylmethoxy)-4-methyl-phenoxy]pyrimidin-4-yl]-5,5-dimethyl-imidazolidine-2,4-dione]
7% | −0.2 mV | COc1cc(C)cc(Oc2cc(N3C(=O)NC(C)(C)C3=O)ncn2)c1 [Example 17, 3-[6-(3-methyl-5-methoxy-phenoxy)pyrimidin-4-yl]-5,5-dimethyl-imidazolidine-2,4-dione]
13% | −0.3 mV | COc1ccc(Oc2cc(N3C(=O)NC(C)(C)C3=O)ncn2)cc1F [Example 12, 3-[6-(3-fluoro-4-methoxy-phenoxy)pyrimidin-4-yl]-5,5-dimethyl-imidazolidine-2,4-dione]
65% | −3.3 mV | CC1(C)NC(=O)N(c2cc(Oc3ccc4c(c3)CCC4)ncn2)C1=O [Example 31, 3-(6-indan-5-yloxypyrimidin-4-yl)-5,5-dimethyl-imidazolidine-2,4-dione]
22% | −2.0 mV | COc1cc(Oc2ccnc(N3C(=O)NC(C)(C)C3=O)n2)ccc1C [Example 60, 3-[4-(3-methoxy-4-methyl-phenox)pyrimidin-2-yl]-5,5-dimethyl-imidazolidine-2,4-dione]
6% | −0.1 mV | COc1cncc(Oc2cc(N3C(=O)NC(C)(C)C3=O)ncn2)c1 [Example 25, 5,5-dimethyl-3-[6-[(5-methoxy-3-pyridyl)oxy]pyrimidin-4-yl]imidazolidine-2,4-dione]
26% | −2.4 mV | COc1cc(Oc2cnnc(N3C(=O)NC(C)(C)C3=O)c2)ccc1C [Example 77, 3-[5-(3-methoxy-4-methyl-phenoxy)pyridazin-3-yl]-5,5-dimethyl-imidazolidine-2,4-dione]
34% | −1.8 mV | COc1cc(Oc2nccc(N3C(=O)NC(C)(C)C3=O)n2)ccc1F [Example 64, 3-[2-(3-methoxy-4-fluoro-phenoxy)pyrimidin-4-yl]-5,5-dimethyl-imidazolidine-2,4-dione]
25% | −0.9 mV | CCC1(CC)NC(=O)N(c2cc(Oc3ccc(C)c(OC)c3)ncn2)C1=O [Example 4, 3-[6-(3-methoxy-4-methyl-phenoxy)pyrimidin-4-yl]-5,5-diethyl-imidazolidine-2,4-dione]
35% | −3.2 mV | COc1cc(Oc2cc(N3C(=O)NC4(CCC4)C3=O)ncn2)ccc1C [Example 5, 7-[6-(3-methoxy-4-methyl-phenoxy)pyrimidin-4-yl]-5,7-diazaspiro[3.4]octane-6,8-dione]
3% | +0.4 mV | COc1cccc(Oc2cc(N3C(=O)NC(C)(C)C3=O)ncn2)c1 [Example 10, 3-[6-(3-methoxyphenoxy)pyrimidin-4-yl]-5,5-dimethyl-imidazolidine-2,4-dione]

The next lines start with the compound.

Structure (SMILES) | Kv3.1 Activity at 10 μM Potentiation (%) | Kv3.1 Activity at 10 μM Voltage Shift (mV)
Cc1ccc(Oc2cc(N3C(=O)NC(C)(C)C3=O)ncn2)cc1OCC(C)C [Example 39, 3-[6-(3-isobutoxy-4-methyl-phenoxy)pyrimidin-4-yl]-5,5-dimethyl-imidazolidine-2,4-dione] | 13% | −2.1 mV
CC[C@@]1(C)NC(=O)N(c2cc(Oc3ccc(C)c(OC)c3)ncn2)C1=O [Example 2, (5R)-5-ethyl-3-[6-(3-methoxy-4-methyl-phenoxy)pyrimidin-4-yl]-5-methyl-imidazolidine-2,4-dione] | 16% | −1.9 mV
COc1c(C)cc(Oc2cc(N3C(=O)NC(C)(C)C3=O)ncn2)cc1C [Example 35, 3-[6-(4-methoxy-3,5-dimethyl-phenoxy)pyrimidin-4-yl]-5,5-dimethyl-imidazolidine-2,4-dione] | −10% | −0.4 mV
Cc1ccc(Oc2cc(N3C(=O)NC(C)(C)C3=O)ncn2)cn1 [Example 24, 5,5-dimethyl-3-[6-[(6-methyl-3-pyridyl)oxy]pyrimidin-4-yl]imidazolidine-2,4-dione] | 33% | −4.0 mV
COc1ccc(Oc2cc(N3C(=O)NC(C)(C)C3=O)ncn2)cc1C [Example 20, 3-[6-(3-methyl-4-methoxy-phenoxy)pyrimidin-4-yl]-5,5-dimethyl-imidazolidine-2,4-dione] | 37% | −3.3 mV
CC[C@H]1NC(=O)N(c2nccc(Oc3ccc(C#N)cc3C(C)(C)C)n2)C1=O [Example 57, 3-tert-butyl-4-[2-[(4R)-4-ethyl-2,5-dioxo-imidazolidin-1-yl]pyrimidin-4-yl]oxy-benzonitrile] | −7% | +0.8 mV
Cc1cccc(Oc2cc(N3C(=O)NC(C)(C)C3=O)ncn2)c1 [Example 27, 3-[6-(3-methylphenoxy)pyrimidin-4-yl]-5,5-dimethyl-imidazolidine-2,4-dione] | −17% | +2.11 mV
COc1cc(Oc2cc(N3C(=O)N[C@](C)(C(C)C)C3=O)ncn2)ccc1C [Example 8, (5R)-5-isopropyl-3-[6-(3-methoxy-4-methyl-phenoxy)pyrimidin-4-yl]-5-methyl-imidazolidine-2,4-dione] | 48% | −3.1 mV
CC1(C)NC(=O)N(c2cc(Oc3cccc4c3CCC4)ncn2)C1=O [Example 32, 3-(6-indan-4-yloxypyrimidin-4-yl)-5,5-dimethyl-imidazolidine-2,4-dione] | 13% | −1.3 mV
Cc1ccc(Oc2cc(N3C(=O)NC(C)(C)C3=O)ncn2)cc1OC(F)(F)F [Example 44, 3-[6-[4-methyl-3-(trifluoromethoxy)phenoxy]pyrimidin-4-yl]-5,5-dimethyl-imidazolidine-2,4-dione] | 33% | −2.9 mV
COc1c(C)cccc1Oc1cc(N2C(=O)NC(C)(C)C2=O)ncn1 [Example 19, 3-[6-(2-methoxy-3-methyl-phenoxy)pyrimidin-4-yl]-5,5-dimethyl-imidazolidine-2,4-dione] | 15% | −1.7 mV
CCOc1cc(Oc2cc(N3C(=O)NC(C)(C)C3=O)ncn2)ccc1C [Example 36, 3-[6-(3-ethoxy-4-methyl-phenoxy)pyrimidin-4-yl]-5,5-dimethyl-imidazolidine-2,4-dione] | 17% | −3.3 mV
